# Test results published in patent publication US8101761B2, “(E)-N-{3-[1-(8-fluoro-11H-10-OXA-1-AZA-dibenzo [A,D] cyclohepten-5ylidene)-propyl]-phenyl}-methanesulfonamide as glucocorticoid receptor modulator for the treatment of rheumatoid arthritis” (Eli Lilly and Company, priority 2008, dated 2012).
# Where two headings read alike, the source gives them in different places.
# Assays:
# [1] = target: T1, human mineralocorticoid receptor (MR) (Homo sapiens, UniProt P08235); test: Nuclear hormone receptor functional modulation assay (GRE-luciferase reporter, HEK293), MR; type: cell-based; conditions: agonist mode, mean of n=4 or 5
# T1 construct: expressed in transfected cells; host or cells: HEK293, transient transfection, CMV promoter plasmid
# T1 sequence (P08235 1-984): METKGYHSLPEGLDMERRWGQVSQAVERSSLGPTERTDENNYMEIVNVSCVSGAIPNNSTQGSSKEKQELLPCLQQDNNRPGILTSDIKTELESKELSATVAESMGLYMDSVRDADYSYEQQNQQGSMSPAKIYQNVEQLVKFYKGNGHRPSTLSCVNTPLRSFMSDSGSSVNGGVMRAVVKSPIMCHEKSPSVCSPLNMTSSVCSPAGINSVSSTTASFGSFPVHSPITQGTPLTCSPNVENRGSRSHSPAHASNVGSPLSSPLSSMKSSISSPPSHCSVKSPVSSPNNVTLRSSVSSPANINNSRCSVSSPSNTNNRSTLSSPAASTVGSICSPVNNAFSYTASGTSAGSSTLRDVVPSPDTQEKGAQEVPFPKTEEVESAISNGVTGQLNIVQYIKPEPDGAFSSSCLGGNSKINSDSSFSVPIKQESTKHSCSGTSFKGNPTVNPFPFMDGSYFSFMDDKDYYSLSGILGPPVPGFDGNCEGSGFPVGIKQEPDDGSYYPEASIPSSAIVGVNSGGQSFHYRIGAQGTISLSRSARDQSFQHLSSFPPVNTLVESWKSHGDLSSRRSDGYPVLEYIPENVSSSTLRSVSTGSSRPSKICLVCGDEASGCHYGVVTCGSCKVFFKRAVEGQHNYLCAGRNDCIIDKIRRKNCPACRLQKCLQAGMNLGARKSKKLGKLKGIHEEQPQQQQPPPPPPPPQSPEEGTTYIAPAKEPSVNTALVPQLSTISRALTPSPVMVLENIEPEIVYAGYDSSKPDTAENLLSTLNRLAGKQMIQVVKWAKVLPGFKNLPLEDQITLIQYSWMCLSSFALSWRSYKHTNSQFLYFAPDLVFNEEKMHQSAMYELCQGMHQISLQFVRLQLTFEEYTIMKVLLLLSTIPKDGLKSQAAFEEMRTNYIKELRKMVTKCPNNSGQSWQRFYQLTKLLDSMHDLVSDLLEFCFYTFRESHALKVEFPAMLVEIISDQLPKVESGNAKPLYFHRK
# Excerpt: The solvents, reagents, and ligands employed in the functional assay are readily available from commercial sources, or can be prepared by one of ordinary skill in the art.
# Human embryonic kidney HEK293 cells are transfected with steroid hormone receptor and reporter gene plasmids using Fugene™ transfection reagent. Briefly, the reporter plasmid containing two copies of probasin ARE and TK(thymidine kinase) promoter upstream of the luciferase reporter cDNA, is transfected into HEK293 cells with a plasmid constitutively expressing human androgen receptor (AR) using viral CMV(cytomegalovirus) promoter. The reporter plasmid containing two copies of GRE and TK promoter upstream of the luciferase reporter cDNA is transfected with a plasmid constitutively expressing either human glucocorticoid receptor (GR), human mineralocorticoid receptor (MR), or human progesterone receptor (PR) using viral CMV promoter. […] After 24-hours incubation with test compounds, cells are lysed and luciferase activity is determined using standard techniques.
# Data are fitted to a four parameter-fit logistic curve fit to determine EC50 values. […] IC50 values may be determined similarly using antagonist mode assay data. Percent inhibitions may also be determined relative to the response in the presence of agonist alone, as described above.
# [2] = tested on: IL-6 production in human skin fibroblast CCD-39SK cells; test: GR-mediated transrepression: IL-1β-stimulated IL-6 production in human skin fibroblast CCD-39SK cells; type: cell-based; conditions: IL-1β 1 ng/ml
# Protocol: 1. IL-1,3-stimulated IL-6 Production in Human Skin Fibroblast CCD-39SK Cells:
# Briefly, human skin fibroblast CCD-39SK cells (20,000 cells/well), obtained from ATCC are seeded in 96-well plates in […] growth medium supplemented with 10% FBS, 100 U/ml penicillin, 100 ug/ml streptomycin and 2 mmol/L L-glutamine. Cells are maintained in a humidified chamber with 5% CO2 at 37° C. Test compounds are added to the wells in various concentrations ranging from a final concentration of about […] to 4.64 μM. 0.1 μM of dexamethasone is used as a positive control. 1-hour post treatment with test compound, IL-1β is added at final concentration of 1 ng/ml; and the reaction mixture is incubated overnight. 10 μl of supernatant is removed from each well and IL-6 concentrations are determined using an ELISA kit, with IL-6 concentrations being quantified by reading absorbance at 450 nm.
# [3] = tested on: carrageenan-induced paw edema in male Sprague-Dawley rats; test: Carrageenan-induced paw edema (CPE) model; type: in vivo; conditions: rat, oral gavage 2 h before carrageenan, paws taken 3 h after, mean of 5 determinations
# Excerpt: Carrageenans are a group of polysaccharides which can induce an acute inflammatory response in animals. Cardinal signs of inflammation including edema, hyperalgesia and erythema are developed in the injection site immediately following injection. The CPE model is a recognized model of inflammation and can be used to evaluate the anti-inflammatory effects of glucocorticoid receptor ligands.
# To evaluate the anti-inflammatory effects of Compound (I), the compound is formulated in a vehicle comprising 0.5% carboxymethyl cellulose and 0.25% Tween 80 then administered orally via gavage to male Sprague-Dawley rats (180-200 g). For comparison, prednisolone may be administered orally in the same vehicle. Two hours later, 1% carrageenan in 50 μl of 0.9% pyrogen free saline is injected into the subplantar regions of the right hind paw. Rats are euthanized by CO2 at 3 hours after the carrageenan injection. Paws are removed then weighed using a microbalance. Paws are then dissected by making several cuts on the paw surface and immediately immersing into liquid nitrogen until frozen. Frozen paws are then centrifuged to extract the exudates. Exudate levels of IL-1β, a cytokine generated during the inflammatory response is then measured by ELISA according to manufacturers instructions. Total paw protein is also measured using a protein assay kit and the absolute level of IL-1β is normalized to yield a concentration value of ng IL-1β/mg total protein.
smiles,measurement,setting,value
"CC/C(=C1\c2ccc(F)cc2OCc2ncccc21)c1cccc(NS(C)(=O)=O)c1 [Compound (I), (E)-N-{3-[1-(8-Fluoro-11H-10-oxa-1-aza-dibenzo[a,d]cyclohepten-5-ylidene)-propyl]-phenyl}-methanesulfonamide]","efficacy in activating transcription, MR",[1]; relative to 30 nM aldosterone,about 11%
same,EC50,"[1]; read-out: EC50 in activating transcription, MR",> 10000 nM
same,IC50,"[2]; Homo sapiens, Skin fibroblast, average of n=15, read-out: IC50, inhibition of IL-6 expression",~8.5 nM
same,maximal inhibition of the endogenous expression of IL-6,[2]; n=15,≥ 90%
same,ED50,"[3]; read-out: ED50, inhibition of carrageenan induced paw weight gain",~2.8 mg/kg
same,ED50,"[3]; read-out: ED50, reduction of paw exudate levels of IL-1β",~3.2 mg/kg
